Measured values published in patent US20110065706A1, “Therapeutic Agents 812” (AstraZeneca AB, priority 2009, published 2011).

Target: T1, human GPR119 (Homo sapiens, UniProt Q8TDV5)
T1 construct: expressed in transfected cells; host or cells: HEK 293s
T1 sequence (Q8TDV5 1-335): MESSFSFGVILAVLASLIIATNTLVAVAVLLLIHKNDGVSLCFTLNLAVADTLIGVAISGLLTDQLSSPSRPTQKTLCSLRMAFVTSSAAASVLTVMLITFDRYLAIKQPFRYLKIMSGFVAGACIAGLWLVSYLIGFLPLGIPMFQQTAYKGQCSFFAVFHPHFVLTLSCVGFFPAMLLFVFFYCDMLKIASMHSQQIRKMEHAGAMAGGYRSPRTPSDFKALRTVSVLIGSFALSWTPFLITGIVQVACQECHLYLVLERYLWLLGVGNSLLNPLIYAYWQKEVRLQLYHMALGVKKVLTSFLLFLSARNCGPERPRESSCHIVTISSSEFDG
Experiment: Cyclic AMP (HTRF cAMP) assay for human GPR119, Method A
Format: cell-based
Conditions: human GPR119 cAMP assay; top concentration 30 μM

SMILES: CS(=O)(=O)c1ccc(COc2cnc(N3CCN(C(=O)OC4CCOCC4)CC3)nc2)cc1 [tetrahydropyran-4-yl 4-[5-[(4-methylsulfonylphenyl)methoxy]pyrimidin-2-yl]piperazine-1-carboxylate]
- significant activity at a top concentration of 30 μM: did not show significant activity

SMILES: C[C@@H]1CN(C(=O)OC2CCOCC2)CCN1c1ncc(OCc2ccc(S(C)(=O)=O)cc2)cn1 [tetrahydropyran-4-yl (3R)-3-methyl-4-[5-[(4-methylsulfonylphenyl)methoxy]pyrimidin-2-yl]piperazine-1-carboxylate]
- significant activity at a top concentration of 30 μM: did not show significant activity
